Results on one molecule are retold here after patent US4789543A, “Neutral technetium 99-m complexes useful as radiodiagnostic agents” (E. I. Du Pont de Nemours and Company, priority 1984, dated 1988).

Some results are limits rather than exact numbers.

Test [1] concerns hepatobiliary transit (liver, gall bladder and gastro-intestinal tract). The test is described as follows: Visualization of hepatobiliary transit by scintillation camera after intravenous injection (rabbit). Type of test: in vivo, male New Zealand Albino rabbit. On the procedure:
A lyophylized vial of HEPATOLITE™ (New England Nuclear Corporation's brand of Technetium Tc^99m Disofenin) is labelled with ^99m Tc-pertechnetate in accordance with manufacturer's directions. At least 1 mCi of the labelled preparation is injected intravenously into a 2.5 Kg male New Zealand Albino rabbit. The rabbit is positioned under a Searle Pho-Gamma scintillation camera in such a way that the liver and gastro-intestinal tract are within the field of view.
Greater than 1 mCi of the ^99m Tc-Cl(SO2)-DMPE complex from either Example 1 or 2 is injected into a rabbit as in Example 3.

The subject of test [2] is hepatobiliary transit. The note with it: commercially available agent, background statement; cited from earlier work.

In the case of `CC(C)c1cccc(C(C)C)c1NC(=O)CN(CC(=O)O)CC(=O)O` (99mTc complex, metal not drawn) [Disofenin], the “sequential images from the time of injection” value in test [1] (2.5 Kg male rabbit, at least 1 mCi i.v.) was “initial liver uptake with gradual visualization of the gall bladder and gastro-intestinal tract, analogous to the diagnostically efficacious results obtained in clinical studies of normal healthy humans”. Further, the “time to images of the liver, gall bladder and gastro-intestinal tract (hepatobiliary transit)” value in test [1] (rabbit, > 1 mCi (complex) or at least 1 mCi (Disofenin) i.v., sequential images) is given as “about 30 minutes”. For the same molecule, the “time to obtain an image of the hepatobiliary transit” value in test [2] is not above 30 min.
